Results from ChEMBL document CHEMBL6103619, “Discovery of a Novel CRBN-Recruiting cGAS PROTAC Degrader for the Treatment of Ulcerative Colitis” (J Med Chem, 2025).
The source made the active and inactive calls. The calls are words filed in the database; no cut-off is given here.

Assays:
[1] = target: T1, Protein cereblon/Cyclic GMP-AMP synthase (Homo sapiens, UniProt Q96SW2+Q8N884); experiment: PROTAC activity at CRBN/cGAS in human THP-1 cells assessed as induction of cGAS degradation preincubated with compound for 40 hrs followed by HT-DNA stimulation and measured after 8 hrs by Western blot analysis; assay type: cell-based
[2] = target: T1, Protein cereblon/Cyclic GMP-AMP synthase; experiment: PROTAC activity at CRBN/cGAS in human THP-1 cells assessed as induction of cGAS degradation by measuring maximal efficacy at 20 uM preincubated with compound for 40 hrs followed by HT-DNA stimulation and measured after 8 hrs by Western blot analysis relative to control; assay type: cell-based; conditions: time 48.0 hrs
Target sequence in this assay (Q8N884 whole entry, looked up): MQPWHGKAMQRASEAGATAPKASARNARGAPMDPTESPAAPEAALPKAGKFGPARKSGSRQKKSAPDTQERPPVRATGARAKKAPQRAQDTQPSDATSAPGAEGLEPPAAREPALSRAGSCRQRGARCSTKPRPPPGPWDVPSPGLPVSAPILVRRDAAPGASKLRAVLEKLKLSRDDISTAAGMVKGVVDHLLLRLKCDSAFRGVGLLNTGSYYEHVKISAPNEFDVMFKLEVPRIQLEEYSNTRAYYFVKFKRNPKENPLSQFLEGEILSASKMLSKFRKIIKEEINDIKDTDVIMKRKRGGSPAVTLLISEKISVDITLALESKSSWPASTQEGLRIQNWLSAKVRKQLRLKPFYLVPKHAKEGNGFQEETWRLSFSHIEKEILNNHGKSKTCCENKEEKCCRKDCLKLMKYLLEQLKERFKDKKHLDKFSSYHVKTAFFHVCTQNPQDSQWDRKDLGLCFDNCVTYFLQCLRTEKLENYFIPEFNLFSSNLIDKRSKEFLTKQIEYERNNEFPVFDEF
Target sequence in this assay (Q96SW2 whole entry, looked up): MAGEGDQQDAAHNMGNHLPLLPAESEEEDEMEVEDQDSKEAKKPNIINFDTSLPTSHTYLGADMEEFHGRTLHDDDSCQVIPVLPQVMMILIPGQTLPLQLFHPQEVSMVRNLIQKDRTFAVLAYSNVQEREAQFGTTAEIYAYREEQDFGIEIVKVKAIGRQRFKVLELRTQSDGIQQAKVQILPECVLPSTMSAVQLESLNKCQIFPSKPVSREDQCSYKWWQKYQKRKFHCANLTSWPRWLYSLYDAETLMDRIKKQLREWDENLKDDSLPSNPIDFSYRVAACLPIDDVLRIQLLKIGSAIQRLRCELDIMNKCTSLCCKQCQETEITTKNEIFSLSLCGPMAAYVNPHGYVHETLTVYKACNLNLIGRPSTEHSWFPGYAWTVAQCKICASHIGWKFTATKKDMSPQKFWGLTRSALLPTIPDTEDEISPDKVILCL

[3] = target: T2, Protein cereblon/Cyclic GMP-AMP synthase (Mus musculus) (UniProt Q8C6L5+Q8C7D2); experiment: (§1) PROTAC activity at CRBN/cGAS in mouse RAW264.7 cells assessed as induction of cGAS degradation preincubated with compound for 40 hrs followed by HT-DNA stimulation and measured after 8 hrs by Western blot analysis; assay type: cell-based; conditions: time 48.0 hrs
T2 sequence (Q8C6L5 whole entry, looked up): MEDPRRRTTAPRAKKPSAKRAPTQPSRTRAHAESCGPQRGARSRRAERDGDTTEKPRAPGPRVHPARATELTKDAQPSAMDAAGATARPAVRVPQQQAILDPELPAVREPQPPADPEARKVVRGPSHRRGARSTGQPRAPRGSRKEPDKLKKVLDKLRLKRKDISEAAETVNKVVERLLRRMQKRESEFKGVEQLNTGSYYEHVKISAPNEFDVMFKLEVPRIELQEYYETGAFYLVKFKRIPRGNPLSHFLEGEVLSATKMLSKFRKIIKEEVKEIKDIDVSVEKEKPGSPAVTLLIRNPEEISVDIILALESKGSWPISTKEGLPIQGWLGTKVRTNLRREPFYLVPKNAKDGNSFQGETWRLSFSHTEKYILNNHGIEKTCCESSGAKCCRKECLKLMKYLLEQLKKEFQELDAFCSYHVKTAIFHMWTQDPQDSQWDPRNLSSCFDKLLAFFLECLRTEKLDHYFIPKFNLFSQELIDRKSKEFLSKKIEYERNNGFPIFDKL
T2 sequence (Q8C7D2 whole entry, looked up): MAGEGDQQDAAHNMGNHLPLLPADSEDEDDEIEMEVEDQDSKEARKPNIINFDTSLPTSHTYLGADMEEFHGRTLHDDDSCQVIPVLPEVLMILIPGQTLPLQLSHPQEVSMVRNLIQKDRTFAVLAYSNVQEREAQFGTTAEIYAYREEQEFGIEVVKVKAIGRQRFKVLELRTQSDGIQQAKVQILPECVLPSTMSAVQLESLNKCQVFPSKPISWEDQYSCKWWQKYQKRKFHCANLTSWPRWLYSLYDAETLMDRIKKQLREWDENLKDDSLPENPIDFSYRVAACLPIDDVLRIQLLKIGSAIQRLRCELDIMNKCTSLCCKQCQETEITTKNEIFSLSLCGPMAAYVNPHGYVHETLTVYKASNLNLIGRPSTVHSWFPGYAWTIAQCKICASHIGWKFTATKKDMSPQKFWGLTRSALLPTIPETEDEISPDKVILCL

[4] = target: Protein cereblon/Cyclic GMP-AMP synthase (Mus musculus, UniProt Q8C6L5+Q8C7D2); experiment: as §1; assay type: cell-based
Sequence of Protein cereblon/Cyclic GMP-AMP synthase (Mus musculus, UniProt Q8C6L5+Q8C7D2) (Q8C6L5 whole entry): as the sequence (Q8C6L5 whole entry, looked up) above
Sequence of Protein cereblon/Cyclic GMP-AMP synthase (Mus musculus, UniProt Q8C6L5+Q8C7D2) (Q8C7D2 whole entry): as the sequence (Q8C7D2 whole entry, looked up) above

[5] = target: T1, Protein cereblon/Cyclic GMP-AMP synthase; experiment: PROTAC activity at CRBN/cGAS in human THP-1 cells assessed as induction of cGAS degradation at 10 uM preincubated with 1-(6,7-dichloro-9-(1-methyl-1H-pyrazol-3-yl)-1,3,4,5-tetrahydro-2H-pyrido[4,3-b]indol-2-yl)-2-hydroxyethan-1-one for 2 hrs followed by compound addition and measured after 48 hrs by Western blot analysis; assay type: cell-based
Target sequence in this assay (Q8N884 whole entry, looked up): as the sequence (Q8N884 whole entry, looked up) above
Target sequence in this assay (Q96SW2 whole entry, looked up): as the sequence (Q96SW2 whole entry, looked up) above

[6] = target: T1, Protein cereblon/Cyclic GMP-AMP synthase; experiment: PROTAC activity at CRBN/cGAS in human THP-1 cells assessed as induction of cGAS degradation at 10 uM preincubated with lenalidomide for 2 hrs followed by compound addition and measured after 48 hrs by Western blot analysis; assay type: cell-based
Target sequence in this assay (Q8N884 whole entry, looked up): as the sequence (Q8N884 whole entry, looked up) above
Target sequence in this assay (Q96SW2 whole entry, looked up): as the sequence (Q96SW2 whole entry, looked up) above

THP-1 [7] = experiment: Inhibition of ds-DNA induced cGAS-STING signaling pathway in human THP-1 cells assessed as reduction in TBK1 phosphorylation preincubated with compound for 40 hrs followed by HT-DNA addition and measured after 8 hrs by Western blot analysis; assay type: cell-based; conditions: dose 0.7-20 µM, time 48.0 hrs
THP-1 [8] = experiment: Inhibition of ds-DNA induced cGAS-STING signaling pathway in human THP-1 cells assessed as reduction in IRF3 phosphorylation preincubated with compound for 40 hrs followed by HT-DNA addition and measured after 8 hrs by Western blot analysis; assay type: cell-based; conditions: dose 0.7-20 µM, time 48.0 hrs
RAW264.7 [9] = experiment: Inhibition of ds-DNA induced cGAS-STING signaling pathway in mouse RAW264.7 cells assessed as reduction in STING phosphorylation preincubated with compound for 40 hrs followed by HT-DNA addition and measured after 8 hrs by Western blot analysis; assay type: cell-based; conditions: dose 0.7-20 µM, time 48.0 hrs
THP-1 [10] = experiment: Downregulation of IFNB mRNA expression in human THP-1 cells preincubated with compound for 40 hrs followed by HT-DNA addition and measured after 8 hrs by qRT-PCR analysis; assay type: functional, cell-based; conditions: dose 1.25-10 µM, time 48.0 hrs
THP-1 [11] = experiment: Downregulation of CXCL10 mRNA expression in human THP-1 cells preincubated with compound for 40 hrs followed by HT-DNA addition and measured after 8 hrs by qRT-PCR analysis; assay type: functional, cell-based; conditions: dose 1.25-10 µM, time 48.0 hrs
RAW264.7 [12] = experiment: Upregulation of IFNB mRNA expression level in mouse Trex1-/- RAW264.7 cells at 5 to 20 uM incubated for 24 hrs by qRT-PCR analysis; assay type: functional, cell-based; conditions: dose 5-20 µM
THP-1 [13] = experiment: Downregulation of IFNB mRNA expression level in HSV-1-induced human THP-1 cells at 20 uM preincubated with compound for 12 hrs followed by HSV1 addition and measured after 8 hrs by RT-qPCR analysis; assay type: functional, cell-based; conditions: time 20.0 hrs
THP-1 [14] = experiment: Downregulation of IFNB mRNA expression level in cGAMP-induced human THP-1 cells at 20 uM preincubated with compound for 12 hrs followed by cGAMP addition and measured after 8 hrs by RT-qPCR analysis; assay type: functional, cell-based; conditions: time 20.0 hrs
RAW264.7 [15] = experiment: Cytotoxicity against mouse RAW264.7 cells assessed as reduction in cell viability upto 60 uM incubated for 48 hrs by CCK8 assay; assay type: toxicity, cell-based; conditions: raw264.7, 48 h
RAW264.7 [16] = experiment: Cytotoxicity against mouse RAW264.7 cells assessed as reduction in cell viability at >30 uM incubated for 48 hrs by CCK8 assay; assay type: toxicity, cell-based; conditions: raw264.7, 48 h
[17] = Cytotoxicity against human THP1-Lucia ISG cells assessed as reduction in cell viability at >30 uM incubated for 48 hrs by CCK8 assay; assay type: toxicity, cell-based
[18] = AUC (0 to infinity) in male C57BL/6 mouse at 1 mg/kg, iv measured after 24 hrs by LC-MS/MS analysis; assay type: ADME, organism-based; conditions: in vivo
[19] = MRT (0 to 24 hrs) in male C57BL/6 mouse at 1 mg/kg, iv measured after 24 hrs by LC-MS/MS analysis; assay type: ADME, organism-based; conditions: in vivo
[20] = AUC (0 to 24 hrs) in male C57BL/6 mouse at 20 mg/kg, ip measured after 24 hrs by LC-MS/MS analysis; assay type: ADME, organism-based; conditions: in vivo
[21] = AUC (0 to infinity) in male C57BL/6 mouse at 20 mg/kg, ip measured after 24 hrs by LC-MS/MS analysis; assay type: ADME, organism-based; conditions: in vivo
[22] = MRT (0 to 24 hrs) in male C57BL/6 mouse at 20 mg/kg, ip measured after 24 hrs by LC-MS/MS analysis; assay type: ADME, organism-based; conditions: in vivo
Mus musculus [23] = experiment: (§2) Anti-inflammatory activity in DSS-induced ulcerative colitis C57BL/6 mouse model assessed as improvement in colon pathology at 20 to 50 mg/kg/day, ip preadministered with DSS for 7 days followed by replacement with ultrapure water for 3 days with subsequent compound administration starting from day 4 to 10 and measured on day 11 by H and E staining based analysis; assay type: functional, organism-based; conditions: dose 20-50 mg/kg/day, time 8.0 day
[24] = target: T2, Protein cereblon/Cyclic GMP-AMP synthase (Mus musculus); experiment: (§3) In vivo inhibition of cGAS signaling pathway in DSS-induced ulcerative colitis C57BL/6 mouse model assessed as reduction in cGAS protein level in colon preadministered with DSS for 7 days followed by replacement with ultrapure water for 3 days with subsequent intraperitoneal compound administration starting from day 4 to 10 and measured on day 11 by Western blot analysis; assay type: functional, organism-based; conditions: dose 20-50 mg/kg/day, route ip, time 8.0 day
[25] = target: T2, Protein cereblon/Cyclic GMP-AMP synthase (Mus musculus); experiment: as §3, with “IRF3 phosphorylation” for “cGAS protein”; assay type: functional, organism-based; conditions: dose 20-50 mg/kg/day, route ip, time 8.0 day
Mus musculus [26] = experiment: as §2, with “reduction in IFNB mRNA level” for “improvement”, “colon” for “colon pathology”, “qRT-PCR” for “H and E staining based”; assay type: functional, organism-based; conditions: dose 20-50 mg/kg/day, time 8.0 day
Mus musculus [27] = experiment: as §2, with “reduction in TNF-alpha mRNA level” for “improvement”, “colon” for “colon pathology”, “qRT-PCR” for “H and E staining based”; assay type: functional, organism-based; conditions: dose 20-50 mg/kg/day, time 8.0 day
Mus musculus [28] = experiment: as §2, with “reduction in IL-6 secretion” for “improvement”, “colon” for “colon pathology”, “ELISA” for “H and E staining based analysis”; assay type: functional, organism-based; conditions: dose 20-50 mg/kg/day, time 8.0 day
Mus musculus [29] = experiment: as §2, with “reduction in TNF-alpha secretion” for “improvement”, “colon” for “colon pathology”, “ELISA” for “H and E staining based analysis”; assay type: functional, organism-based; conditions: dose 20-50 mg/kg/day, time 8.0 day
Mus musculus [30] = experiment: as §2, with “reduction in NET generation by measuring reduction in citH3 level” for “improvement”, “colon” for “colon pathology”, “Western blot” for “H and E staining based”; assay type: functional, organism-based; conditions: dose 20-50 mg/kg/day, time 8.0 day

DC50 [1]: 900 nM
Activity ([1]; time 48.0 hrs): Dose-dependent-effect
Emax [2]: 94.4%
Activity [3]: Dose-dependent-effect
DC50 [4]: 4600 nM
Activity [5]: inactive
Activity [6]: inactive
AUC(0-inf) [18]: 531 ng·h/mL
MRT last at 24 h [19]: 0.9 h
AUC(0-t) at 24 h [20]: 2020 ng·h/mL
AUC(0-inf) [21]: 2800 ng·h/mL
MRT last at 24 h [22]: 7.9 h
SMILES: Cn1ccc(-c2cc(Cl)c(Cl)c3[nH]c4c(c23)CN(C(=O)CNC(=O)CCCC#Cc2cccc3c2CN(C2CCC(=O)NC2=O)C3=O)CC4)n1 (stereo unspecified)
inhibition (THP-1 [7]): Dose-dependent-effect
inhibition (THP-1 [8]): Dose-dependent-effect
inhibition (RAW264.7 [9]): Dose-dependent-effect
Activity (THP-1 [10]): Dose-dependent-effect
Activity (THP-1 [11]): Dose-dependent-effect
Activity (RAW264.7 [12]): Active
Activity (THP-1 [13]): Active
Activity (THP-1 [14]): inactive
Activity (RAW264.7 [15]): Non-toxic
Activity (RAW264.7 [16]): Toxic
Activity [17]: Toxic
Activity (Mus musculus [23]): Active
inhibition [24]: Dose-dependent-effect
inhibition [25]: Dose-dependent-effect
Activity (Mus musculus [26]): Active
Activity (Mus musculus [27]): Active
Activity (Mus musculus [28]): Active
Activity (Mus musculus [29]): Active
Activity (Mus musculus [30]): Active
